# Test results from patent publication US9284333B2, “Fused pyrroledicarboxamides and their use as pharmaceuticals” (SANOFI, priority 2012, dated 2016).
# Target: Human TASK-1 channels (Homo sapiens (Human), UniProt O14649)
# Test: Determination of the activity on the TASK-1 channel in Xenopus oocytes (two-microelectrode voltage clamp)
# Assay type: cell-based
# Details: compound concentration 5 μM
# Outline: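 Xenopus oocytes were injected with human TASK-1 cRNA and recorded two days later by two-microelectrode voltage clamp, holding at −90 mV with 500 ms steps to 40 mV. Superfusion used ND96, pH 7.4, at room temperature, with rising compound concentrations; percentage inhibition of control current was fitted to a dose-response curve for IC50.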
# Human TASK-1 channels, sequence (O14649 whole entry): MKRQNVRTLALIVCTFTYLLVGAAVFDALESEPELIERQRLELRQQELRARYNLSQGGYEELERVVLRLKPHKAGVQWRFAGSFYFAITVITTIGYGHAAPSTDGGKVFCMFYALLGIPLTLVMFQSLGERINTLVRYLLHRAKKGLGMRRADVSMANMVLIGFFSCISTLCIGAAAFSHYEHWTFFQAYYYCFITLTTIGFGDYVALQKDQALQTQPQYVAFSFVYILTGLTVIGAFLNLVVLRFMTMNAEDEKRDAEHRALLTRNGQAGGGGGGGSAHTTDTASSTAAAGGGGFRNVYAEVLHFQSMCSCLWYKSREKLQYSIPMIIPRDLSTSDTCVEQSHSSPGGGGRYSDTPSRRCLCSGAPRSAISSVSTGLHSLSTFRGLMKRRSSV
row,inhibition at 5 µM [%],Structure (SMILES)
1,89,"CC[C@@H](NC(=O)c1cc(C(=O)N2CCCC2C(O)c2ccccc2)n2c1COCC2)c1ccccc1 (stereo partly drawn) [16fj, 6-[2-(Hydroxy-phenyl-methyl)-pyrrolidine-1-carbonyl]-3,4-dihydro-1H-pyrrolo[2,1-c][1,4]oxazine-8-carboxylic acid ((R)-1-phenyl-propyl)-amide]"
2,82,"CC[C@@H](NC(=O)c1cc(C(=O)N[C@H](CC)c2nccs2)n2c1COCC2)c1ccc(C(F)(F)F)nc1 (racemic) [16pd, 3,4-Dihydro-1H-pyrrolo[2,1-c][1,4]oxazine-6,8-dicarboxylic acid 6-[((R)-1-thiazol-2-yl-propyl)-amide] 8-{[(R)-1-(6-trifluoromethyl-pyridin-3-yl)-propyl]-amide}]"

# Same assay, conditions: human TASK-1 expressed in Xenopus oocytes, room temperature; read-out: IC50 value for TASK-1 inhibition
row,Structure (SMILES),IC50 [nM]
1,"CC[C@@H](NC(=O)c1cc(C(=O)N[C@H](CC)c2ccccn2)n2c1COCC2)c1ccccc1 [16gr, 3,4-Dihydro-1H-pyrrolo[2,1-c][1,4]oxazine-6,8-dicarboxylic acid 8-[((R)-1-phenyl-propyl)-amide] 6-[((R)-1-pyridin-2-yl-propyl)-amide]]",310
2,"CC[C@@H](NC(=O)c1cc(C(=O)N2CCCC2C2CC2)n2c1COCC2)c1ccccc1 (stereo partly drawn) [16gb, 6-(2-Cyclopropyl-pyrrolidine-1-carbonyl)-3,4-dihydro-1H-pyrrolo[2,1-c][1,4]oxazine-8-carboxylic acid ((R)-1-phenyl-propyl)-amide]",450
3,"CC[C@@H](NC(=O)c1cc(C(=O)N2CCC[C@@H]2C)n2c1COC(C)(C)C2)c1ccc(C#N)cc1 [16nx, 3,3-Dimethyl-6-((S)-2-methyl-pyrrolidine-1-carbonyl)-3,4-dihydro-1H-pyrrolo[2,1-c][1,4]oxazine-8-carboxylic acid [(R)-1-(4-cyano-phenyl)-propyl]-amide]",370
4,"CC[C@@H](NC(=O)c1cc(C(=O)Nc2c(C)noc2C)c2n1CCOC2)c1ccccc1 [16jk, 3,4-Dihydro-1H-pyrrolo[2,1-c][1,4]oxazine-6,8-dicarboxylic acid 8-[(3,5-dimethyl-isoxazol-4-yl)-amide] 6-[((R)-1-phenyl-propyl)-amide]]",620
5,"CC[C@@H](NC(=O)c1cc(C(=O)N2CCCC2)n2c1COCC2)c1ccccc1C(F)(F)F [16da, 6-(Pyrrolidine-1-carbonyl)-3,4-dihydro-1H-pyrrolo[2,1-c][1,4]oxazine-8-carboxylic acid [(R)-1-(2-trifluoromethyl-phenyl)-propyl]-amide]",440
6,"CC[C@@H](NC(=O)c1cc(C(=O)N2CCCC2CN2CCOCC2)n2c1COCC2)c1ccccc1 (stereo partly drawn) [16fr, 6-(2-Morpholin-4-ylmethyl-pyrrolidine-1-carbonyl)-3,4-dihydro-1H-pyrrolo[2,1-c][1,4]oxazine-8-carboxylic acid ((R)-1-phenyl-propyl)-amide]",1300
7,"CC[C@@H](NC(=O)c1cc(C(=O)NC(C)c2nnn(CC)n2)n2c1COCC2)c1ccccc1 (stereo partly drawn) [16rq, 3,4-Dihydro-1H-pyrrolo[2,1-c][1,4]oxazine-6,8-dicarboxylic acid 6-{[1-(2-ethyl-2H-tetrazol-5-yl)-ethyl]-amide} 8-[((R)-1-phenyl-propyl)-amide]]",750
8,"CC(NC(=O)c1cc(C(=O)N[C@H](C)c2ccc(F)cc2)n2c1CCCC2)c1ncccn1 (stereo partly drawn) [16lu, 5,6,7,8-Tetrahydro-indolizine-1,3-dicarboxylic acid 3-{[(R)-1-(4-fluoro-phenyl)-ethyl]-amide} 1-[(1-pyrimidin-2-yl-ethyl)-amide]]",450
9,"CC[C@@H](NC(=O)c1cc(C(=O)N2CCC[C@@H]2C)n2c1COCC2)c1ccc(C#N)cc1F [16ay, 6-((S)-2-Methyl-pyrrolidine-1-carbonyl)-3,4-dihydro-1H-pyrrolo[2,1-c][1,4]oxazine-8-carboxylic acid [(R)-1-(4-cyano-2-fluoro-phenyl)-propyl]-amide]",910
10,"O=C(NC(CC(F)(F)F)c1ccccc1)c1cc(C(=O)N2CCCC2)n2c1COCC2 (centres unmarked) [16dj, 6-(Pyrrolidine-1-carbonyl)-3,4-dihydro-1H-pyrrolo[2,1-c][1,4]oxazine-8-carboxylic acid (3,3,3-trifluoro-1-phenyl-propyl)-amide]",1900
11,"CC[C@@H](NC(=O)c1cc(C(=O)N2CCC[C@@H]2C(C)OC)n2c1COCC2)c1ccccc1 (stereo partly drawn) [16ez, 6-[(R)-2-(1-Methoxy-ethyl)-pyrrolidine-1-carbonyl]-3,4-dihydro-1H-pyrrolo[2,1-c][1,4]oxazine-8-carboxylic acid ((R)-1-phenyl-propyl)-amide]",500
12,"CC[C@@H](NC(=O)c1cc(C(=O)NCC2CCOCC2)n2c1CCCC2)c1ccccc1 [16mq, 5,6,7,8-Tetrahydro-indolizine-1,3-dicarboxylic acid 1-[((R)-1-phenyl-propyl)-amide] 3-[(tetrahydro-pyran-4-ylmethyl)-amide]]",310
13,"CC[C@@H](NC(=O)c1cc(C(=O)N[C@H](C)c2ccc(F)cc2)n2c1COCC2)c1cccnc1C(F)(F)F [16dt, 3,4-Dihydro-1H-pyrrolo[2,1-c][1,4]oxazine-6,8-dicarboxylic acid 6-{[(R)-1-(4-fluoro-phenyl)-ethyl]-amide} 8-{[(R)-1-(2-trifluoromethyl-pyridin-3-yl)-propyl]-amide}]",1000
14,"CC[C@@H](NC(=O)c1cc(C(=O)NC(C)c2nnnn2C)n2c1COCC2)c1ccccc1 (stereo partly drawn) [16ro, 3,4-dihydro-1H-pyrrolo[2,1-c][1,4]oxazine-6,8-dicarboxylic acid 6-{[1-(1-methyl-1H-tetrazol-5-yl)-ethyl]-amide} 8-[((R)-1-phenyl-propyl)-amide]]",2800
15,"CCOC(=O)CN(C)C(=O)c1cc(C(=O)N[C@H](CC)c2ccccc2)c2n1CCOC2 [16iy, {Methyl-[8-((R)-1-phenyl-propylcarbamoyl)-3,4-dihydro-1H-pyrrolo[2,1-c][1,4]oxazine-6-carbonyl]-amino}-acetic acid ethyl ester]",270
16,"CC[C@@H](NC(=O)c1cc(C(=O)N2CCC[C@@H]2C(F)(F)F)n2c1COCC2)c1ccc(C(F)(F)F)nc1 [16o, 6-((R)-2-Trifluoromethyl-pyrrolidine-1-carbonyl)-3,4-dihydro-1H-pyrrolo[2,1-c][1,4]oxazine-8-carboxylic acid [(R)-1-(6-trifluoromethyl-pyridin-3-yl)-propyl]-amide]",410

# The remaining lines, values ahead:
row,IC50 [nM],Structure (SMILES)
1,87,"CC[C@@H](NC(=O)c1cc(C(=O)N[C@H](C)c2ccc(F)cc2)c2n1CCS2)c1ccccc1 [16ku, 2,3-Dihydro-pyrrolo[2,1-b]thiazole-5,7-dicarboxylic acid 7-{[(R)-1-(4-fluoro-phenyl)-ethyl]-amide} 5-[((R)-1-phenyl-propyl)-amide]]"
2,200,"CC(C)[C@@H](NC(=O)c1cc(C(=O)N2CCC[C@@H]2C)c2n1CCOC2)c1ccc(F)cc1 [16lj, 8-((S)-2-Methyl-pyrrolidine-1-carbonyl)-3,4-dihydro-1H-pyrrolo[2,1-c][1,4]oxazine-6-carboxylic acid [(R)-1-(4-fluoro-phenyl)-2-methyl-propyl]-amide]"
3,125,"C[C@@H](NC(=O)c1cc(C(=O)N[C@H](C)c2ccc(F)cc2)n2c1COCC2)c1ccc(F)cc1 [16dm, 3,4-Dihydro-1H-pyrrolo[2,1-c][1,4]oxazine-6,8-dicarboxylic acid bis-{[(R)-1-(4-fluoro-phenyl)-ethyl]-amide}]"
4,13,"CC[C@@H](NC(=O)c1cc(C(=O)NC(C2CC2)C2CC2)n2c1COCC2)c1ccccc1 [16hb, 3,4-Dihydro-1H-pyrrolo[2,1-c][1,4]oxazine-6,8-dicarboxylic acid 6-dicyclopropylmethyl-amide 8-[((R)-1-phenyl-propyl)-amide]]"
5,160,"CC[C@@H](NC(=O)c1cc(C(=O)N2CCC[C@@H]2C)n2c1COCC2)c1ccc(F)c(C(F)(F)F)c1 [16bo, 6-((S)-2-Methyl-pyrrolidine-1-carbonyl)-3,4-dihydro-1H-pyrrolo[2,1-c][1,4]oxazine-8-carboxylic acid [(R)-1-(4-fluoro-3-trifluoromethyl-phenyl)-propyl]-amide]"
6,92,"C[C@@H](NC(=O)c1cc(C(=O)N2CCC[C@@H]2C)n2c1CCCC2)c1ccc(Cl)cc1 [16ly, 3-((S)-2-Methyl-pyrrolidine-1-carbonyl)-5,6,7,8-tetrahydro-indolizine-1-carboxylic acid [(R)-1-(4-chloro-phenyl)-ethyl]-amide]"
7,160,"CC[C@@H](NC(=O)c1cc(C(=O)N(C)CCOC)n2c1CCCC2)c1ccccc1 [16mh, 5,6,7,8-Tetrahydro-indolizine-1,3-dicarboxylic acid 3-[(2-methoxy-ethyl)-methyl-amide] 1-[((R)-1-phenyl-propyl)-amide]]"
8,64,"CC[C@@H](NC(=O)c1cc(C(=O)N2CCC[C@@H]2C)n2c1COCC2)c1ccccc1Cl [16q, 6-((S)-2-Methyl-pyrrolidine-1-carbonyl)-3,4-dihydro-1H-pyrrolo[2,1-c][1,4]oxazine-8-carboxylic acid [(R)-1-(2-chloro-phenyl)-propyl]-amide]"
9,140,"CC[C@@H](NC(=O)c1cc(C(=O)N2CCC[C@@H]2C)n2c1COCC2)c1cnc(Cl)c(Cl)c1 [16co, 6-((S)-2-Methyl-pyrrolidine-1-carbonyl)-3,4-dihydro-1H-pyrrolo[2,1-c][1,4]oxazine-8-carboxylic acid [(R)-1-(5,6-dichloro-pyridin-3-yl)-propyl]-amide]"
10,140,"CC[C@@H](NC(=O)c1cc(C(=O)N[C@H](CC)c2ncccn2)c2n1CCOC2)c1ccccc1 [16kd, 3,4-Dihydro-1H-pyrrolo[2,1-c][1,4]oxazine-6,8-dicarboxylic acid 6-[((R)-1-phenyl-propyl)-amide] 8-[((R)-1-pyrimidin-2-yl-propyl)-amide]]"
11,100,"CC[C@@H](NC(=O)c1cc(C(=O)N(C)[C@@H](C)C(=O)OC(C)C)n2c1COCC2)c1ccccc1 [16ja, (S)-2-{Methyl-[8-((R)-1-phenyl-propylcarbamoyl)-3,4-dihydro-1H-pyrrolo[2,1-c][1,4]oxazine-6-carbonyl]-amino}-propionic acid isopropyl ester]"
